# Measured values: ChEMBL document CHEMBL1155860, “Structure-activity relationship study of bone morphogenetic protein (BMP) signaling inhibitors” (Bioorg Med Chem Lett, 2008)
# System: not listed separately
# Assay: Half life in female C57B16 mouse at 3.0 mg/kg, ip
# Assay type: ADME, organism-based
# Parameters: dose 3 mg/kg, route intraperitoneal
# Details: in vivo
row,SMILES,half-life [min]
1,c1ccc2c(-c3cnn4cc(-c5ccc(N6CCNCC6)cc5)cnc34)ccnc2c1,96

# System: not listed separately
# Assay: Tmax in female C57B16 mouse at 3.0 mg/kg, ip
# Assay type: ADME, organism-based
# Parameters: dose 3 mg/kg, route intraperitoneal
# Details: in vivo
row,SMILES,Tmax [min]
1,c1ccc2c(-c3cnn4cc(-c5ccc(N6CCNCC6)cc5)cnc34)ccnc2c1,< 5

# Molecular target: T1, Bone morphogenetic protein 4 (Homo sapiens, UniProt P12644)
# T1 sequence (P12644 whole entry): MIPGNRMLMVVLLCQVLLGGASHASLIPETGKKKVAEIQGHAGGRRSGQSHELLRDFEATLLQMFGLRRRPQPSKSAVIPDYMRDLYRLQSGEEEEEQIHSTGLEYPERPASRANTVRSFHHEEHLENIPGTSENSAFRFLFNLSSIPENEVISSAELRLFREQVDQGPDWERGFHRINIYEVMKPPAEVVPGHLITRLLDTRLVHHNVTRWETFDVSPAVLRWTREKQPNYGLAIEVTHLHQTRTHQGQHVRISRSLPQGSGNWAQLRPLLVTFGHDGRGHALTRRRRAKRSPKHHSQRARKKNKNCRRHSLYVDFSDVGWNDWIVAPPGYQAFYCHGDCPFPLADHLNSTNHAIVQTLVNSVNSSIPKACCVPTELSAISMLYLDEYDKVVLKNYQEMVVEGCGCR
# Assay: Inhibition of BMP4-induced phosphorylation of SMAD 1/5/8 by cytoblot cellular ELISA
# Details: not given
row,SMILES,IC50 [µM]
1,c1cncc(-c2cnn3cc(-c4ccc(OCCN5CCCCC5)cc4)cnc23)c1,> 20
2,COc1ccc(-c2cnc3c(-c4ccncc4)cnn3c2)cc1,6.5
3,COc1ccc(-c2cnc3c(-c4cnc5ccccc5c4)cnn3c2)cc1,> 20
4,c1cc2ncc(-c3ccc(OCCN4CCCCC4)cc3)cn2n1,> 20
5,COc1ccc(-c2cnc3c(-c4cccc5cccnc45)cnn3c2)cc1,> 20
6,COc1ccc(-c2cnc3c(-c4ccnc5ccccc45)ccn3c2)cc1,> 20
7,c1ccc(-c2cnn3cc(-c4ccc(OCCN5CCCCC5)cc4)cnc23)cc1,> 20
8,CN1CCN(CCOc2ccc(-c3cnc4c(-c5ccncc5F)cnn4c3)cc2)CC1,3.3
9,c1cc(-c2cnc3c(-c4ccnc5ccccc45)cnn3c2)cc(N2CCNCC2)c1,20
10,Cc1nn2cc(-c3ccc(OCCN4CCN(C)CC4)cc3)cnc2c1-c1ccncc1,> 20
11,CN1CCN(CCOc2cccc(-c3cnc4c(-c5ccncc5)cnn4c3)c2)CC1,4.5
12,COC(=O)c1cc(-c2ccnc3ccccc23)c2ncc(-c3ccc(OC)cc3)cn12,> 20
13,COc1ccc(-c2cnc3c(-c4cccc5ncccc45)cnn3c2)cc1,3
14,c1ccc2c(-c3cnn4cccnc34)ccnc2c1,5
15,COc1ccc(-c2cnc3c(-c4ccc5ncccc5c4)cnn3c2)cc1,> 20
16,c1cc(-c2cnn3cc(-c4ccc(OCCN5CCCCC5)cc4)cnc23)ccn1 [DORSOMORPHIN],0.43

# Further lines, results first:
row,IC50 [µM],SMILES
1,2,c1cc(-c2cnn3cc(-c4ccc(OCCN5CCOCC5)cc4)cnc23)ccn1
2,0.45,CN1CCN(CCOc2ccc(-c3cnc4c(-c5ccncc5)cnn4c3)cc2)CC1
3,0.25,Oc1ccc(-c2cnc3c(-c4ccnc5ccccc45)cnn3c2)cc1
4,2.6,c1ccc2c(-c3ccn4cc(-c5ccc(OCCN6CCCCC6)cc5)cnc34)ccnc2c1
5,0.15,COc1ccc(-c2ccc3c(-c4ccnc5ccccc45)cnn3c2)cc1
6,0.005,c1ccc2c(-c3cnn4cc(-c5ccc(N6CCNCC6)cc5)ccc34)ccnc2c1
7,0.35,Clc1ccc2c(-c3cnn4cc(-c5ccc(N6CCNCC6)cc5)cnc34)ccnc2c1
8,0.01,CN1CCN(CCOc2ccc(-c3cnc4c(-c5ccnc6ccccc56)cnn4c3)cc2)CC1
9,0.09,c1ccc2c(-c3cnn4cc(-c5ccc(OCCN6CCCCC6)cc5)cnc34)ccnc2c1
10,0.75,c1ccc(-c2cnc3c(-c4ccnc5ccccc45)cnn3c2)cc1
11,0.5,CCN(CC)CCOc1ccc(-c2cnc3c(-c4ccncc4)cnn3c2)cc1
12,0.055,COc1ccc(-c2cnc3c(-c4ccnc5ccccc45)cnn3c2)cc1
13,0.5,COc1ccc(-c2cnc3c(-c4ccnc5cc(Cl)ccc45)cnn3c2)cc1
14,0.0049,c1ccc2c(-c3cnn4cc(-c5ccc(N6CCNCC6)cc5)cnc34)ccnc2c1

# System: not listed separately
# Assay: Tmax in male C57B16 mouse at 3.0 mg/kg, ip
# Assay type: ADME, organism-based
# Parameters: dose 3 mg/kg, route intraperitoneal
# Details: in vivo
row,SMILES,Tmax [min]
1,c1ccc2c(-c3cnn4cc(-c5ccc(N6CCNCC6)cc5)cnc34)ccnc2c1,< 5

# System: not listed separately
# Assay: Metabolic stability in mouse liver microsomes assessed as intrinsic clearance
# Assay type: ADME, Microsome
# Details: not given
row,SMILES,microsomal CLint [µL/min/mg]
1,CN1CCN(CCOc2ccc(-c3cnc4c(-c5ccnc6ccccc56)cnn4c3)cc2)CC1,104

# System: not listed separately
# Assay: Metabolic stability in mouse liver microsomes assessed as half life
# Assay type: ADME, Microsome
# Details: not given
row,SMILES,half-life [min]
1,CN1CCN(CCOc2ccc(-c3cnc4c(-c5ccnc6ccccc56)cnn4c3)cc2)CC1,13.3
